The target of one experiment is T1, 5-HT2A (Homo sapiens, UniProt P28223). The experiment is described as follows: cell-based. Further details: expressed in transfected cells; host or cells: HEK293T, transient.
T1 sequence (P28223 whole entry): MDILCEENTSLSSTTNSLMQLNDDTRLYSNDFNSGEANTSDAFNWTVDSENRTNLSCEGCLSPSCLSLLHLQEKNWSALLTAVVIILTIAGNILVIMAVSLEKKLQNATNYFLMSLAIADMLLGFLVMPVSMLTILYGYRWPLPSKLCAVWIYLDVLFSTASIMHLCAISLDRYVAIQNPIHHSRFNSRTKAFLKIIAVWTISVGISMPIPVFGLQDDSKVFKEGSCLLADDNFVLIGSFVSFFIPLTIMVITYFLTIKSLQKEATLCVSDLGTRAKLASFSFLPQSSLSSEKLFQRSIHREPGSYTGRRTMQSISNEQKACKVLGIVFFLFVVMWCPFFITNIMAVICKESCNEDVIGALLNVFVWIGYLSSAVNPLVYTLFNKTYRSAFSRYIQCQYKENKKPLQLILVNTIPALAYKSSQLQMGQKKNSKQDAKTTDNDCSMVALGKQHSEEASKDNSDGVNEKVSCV
Details: not given
Here is the method: (§1) After at least 18-24 hours, transfected cells were plated in poly-lysine coated 96-well white clear bottom cell culture plates in DMEM containing 1% dialyzed FBS at a density of 25-40,000 cells in 200 μL per well and incubated overnight. After approximately 20-24 hours, media was decanted and cells were washed with 60 μL of drug buffer (1×HBSS, 20 mM HEPES, pH 7.4), followed by 60 μL of drug buffer and pre-incubated in a humidified atmosphere at 37° C. before receiving drug stimulation. Drug stimulation was induced by adding 30 μL of a solution of drug (3X) diluted in McCorvy buffer (1×HBSS, 20 mM HEPES, pH 7.4, supplemented with 0.3% BSA fatty acid free, 0.03% ascorbic acid) and plates were incubated at the indicated time and temperature. Fifteen minutes before reading, 10 μL of the RLuc substrate, either coelenterazine h for β-Arrestin recruitment BRET^1 or coelenterazine 400a for Gq dissociation BRET^2 (Prolume/Nanolight, 5 μM final concentration) was addedper well. […] The BRET ratios of fluorescence/luminescence were calculated per well and were plotted as a function of drug concentration using Graphpad Prism 8 (Graphpad Software Inc., San Diego, CA).
`COc1cc(CCNCc2cccc3ccccc23)cc(OC)c1Br` [(31), 2-(4-bromo-3,5-dimethoxyphenyl)-N-[(naphthalen-1-yl)-methyl]ethan-1-amine]: the EC50 was 170 nM.

The experiment is the same for the next values; noted with them: BRET, mean ± SEM.
In the case of `COc1cc(CCN)c(OC)cc1Br` [Compound 2C-B, reference compound], the “5-HT2A Gq Emax (% 5-HT)” value amounted to 100.8 ± 0.9 % 5-HT and the “5-HT2A Gq dissociation pEC50” value came out at 8.92 ± 0.03.
In the case of `CN(C)CCc1c[nH]c2ccccc12` [DMT, reference compound], the “5-HT2A Gq Emax (% 5-HT)” value is recorded as 76 ± 2 % 5-HT and the “5-HT2A Gq dissociation pEC50” value is 7.17 ± 0.07.

Still in this experiment, the particulars now being: BRET, mean ± SEM; read-out: 5-HT2A Gq dissociation pEC50 (converted).
With `Brc1c2c(c(CCNCc3cccc4ccccc34)c3c1OCC3)OCC2` [(29)], the EC50 is 8.71 nM.
Still for that read-out and setting: next, `COc1cc(Br)c(CCNCc2cccc3ccccc23)cc1OC` [(30)]: 42.7 nM; `COc1cc(Br)cc(OC)c1CCNCc1cccc2ccccc12` [(32)]: 3.89 nM; `COc1cc(Br)cc(OC)c1CC(C)NCc1cccc2ccccc12` (centres unmarked) [(33)]: 31.6 nM.
Same read-out and setting: next, `COc1cc(Br)c(Br)c(OC)c1CCNCc1cccc2ccccc12` [(35)]: 3.89 nM.
Still for that read-out and setting: next, `COc1cc(Br)ccc1CCNCc1cccc(C)c1O` [(41)]: 2.24 nM.

The experiment is the same for the next values; noted with them: read-out: 5-HT2A Gq Emax (% 5-HT), BRET, mean ± SEM.
For the compound `Brc1c2c(c(CCNCc3cccc4ccccc34)c3c1OCC3)OCC2` [(29)], the Emax (in general, the greatest response seen or fitted, relative to the assay's reference) was determined as 31.8 ± 1.4%.
The same measure, in the same setting: next, `COc1cc(Br)c(CCNCc2cccc3ccccc23)cc1OC` [(30)]: 32.3 ± 1.6%.
The same measure, in the same setting: with `COc1cc(CCNCc2cccc3ccccc23)cc(OC)c1Br` [(31), 2-(4-bromo-3,5-dimethoxyphenyl)-N-[(naphthalen-1-yl)-methyl]ethan-1-amine] the figure was 20.3 ± 1.9%; with `COc1cc(Br)cc(OC)c1CCNCc1cccc2ccccc12` [(32)], 33 ± 1.1%.
Same read-out and setting: next, `COc1cc(Br)cc(OC)c1CC(C)NCc1cccc2ccccc12` (centres unmarked) [(33)]: 36.6 ± 1.1%; `COc1cc(Br)c(Br)c(OC)c1CCNCc1cccc2ccccc12` [(35)]: 30.2 ± 1.5%; `COc1cc(Br)ccc1CCNCc1cccc(C)c1O` [(41)]: 68.7 ± 1.3%.

A further experiment deals with 5-HT2B (Homo sapiens, UniProt P41595). Kind of experiment: BRET Gq dissociation, 5-HT2B. Type of experiment: cell-based. Further details: expressed in transfected cells; host or cells: HEK293T, transient.
5-HT2B, sequence (P41595 whole entry): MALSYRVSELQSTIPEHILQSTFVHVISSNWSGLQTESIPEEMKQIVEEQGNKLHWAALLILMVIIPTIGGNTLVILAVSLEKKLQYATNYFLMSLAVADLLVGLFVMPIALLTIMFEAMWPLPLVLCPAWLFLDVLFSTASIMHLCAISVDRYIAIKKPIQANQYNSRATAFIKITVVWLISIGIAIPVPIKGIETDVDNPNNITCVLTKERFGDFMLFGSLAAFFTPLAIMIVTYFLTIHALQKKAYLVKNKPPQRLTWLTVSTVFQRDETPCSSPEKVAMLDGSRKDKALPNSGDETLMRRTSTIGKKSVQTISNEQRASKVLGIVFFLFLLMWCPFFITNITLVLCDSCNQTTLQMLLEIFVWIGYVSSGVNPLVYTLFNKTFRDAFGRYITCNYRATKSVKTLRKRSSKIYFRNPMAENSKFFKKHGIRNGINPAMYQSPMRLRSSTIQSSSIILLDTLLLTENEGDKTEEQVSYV
Details: not given
Here is the method:
After at least 18-24 hours, transfected cells were plated in poly-lysine coated 96-well white clear bottom cell culture plates in DMEM containing 1% dialyzed FBS at a density of 25-40,000 cells in 200 μL per well and incubated overnight. After approximately 20-24 hours, media was decanted and cells were washed with 60 μL of drug buffer (1×HBSS, 20 mM HEPES, pH 7.4), followed by 60 μL of drug buffer and pre-incubated in a humidified atmosphere at 37° C. before receiving drug stimulation. Drug stimulation was induced by adding 30 μL of a solution of drug (3X) diluted in McCorvy buffer (1×HBSS, 20 mM HEPES, pH 7.4, supplemented with 0.3% BSA fatty acid free, 0.03% ascorbic acid) and plates were incubated at the indicated time and temperature. Fifteen minutes before reading, 10 μL of the RLuc substrate, either coelenterazine h for β-Arrestin recruitment BRET^1 or coelenterazine 400a for Gq dissociation BRET^2 (Prolume/Nanolight, 5 μM final concentration) was addedper well. Plates were read for luminescence at 485 nm and fluorescent eYFP emission at 530 nm for BRET^1 and at 400 nm and fluorescent GFP2 emission at 510 nm for BRET2 at 1 second per well using a Mithras LB940 (Berthold). The BRET ratios of fluorescence/luminescence were calculated per well and were plotted as a function of drug concentration using Graphpad Prism 8 (Graphpad Software Inc., San Diego, CA).
A general note: In BRET a luciferase serves as donor, and the signal depends on an acceptor being close.
For the compound `Brc1c2c(c(CCNCc3cccc4ccccc34)c3c1OCC3)OCC2` [(29)], the “5-HT2B Gq Dissociation (BRET) EMAX ± SEM (%5-HT)” value is listed as “No activity” and the “5-HT2B Gq Dissociation (BRET) pEC50 ± SEM” value is listed as “No activity”.
On to `COc1cc(Br)c(CCNCc2cccc3ccccc23)cc1OC` [(30)], for which the “5-HT2B Gq Dissociation (BRET) EMAX ± SEM (%5-HT)” value is “No activity” and the “5-HT2B Gq Dissociation (BRET) pEC50 ± SEM” value is given as “No activity”.
For `COc1cc(CCNCc2cccc3ccccc23)cc(OC)c1Br` [(31), 2-(4-bromo-3,5-dimethoxyphenyl)-N-[(naphthalen-1-yl)-methyl]ethan-1-amine], the “5-HT2B Gq Dissociation (BRET) EMAX ± SEM (%5-HT)” value was “No activity” and the “5-HT2B Gq Dissociation (BRET) pEC50 ± SEM” value is recorded as “No activity”.
Consider `COc1cc(Br)cc(OC)c1CCNCc1cccc2ccccc12` [(32)], for which the “5-HT2B Gq Dissociation (BRET) EMAX ± SEM (%5-HT)” value was “No activity” and the “5-HT2B Gq Dissociation (BRET) pEC50 ± SEM” value is listed as “No activity”.
Take `COc1cc(Br)cc(OC)c1CC(C)NCc1cccc2ccccc12` (centres unmarked) [(33)]: the “5-HT2B Gq Dissociation (BRET) EMAX ± SEM (%5-HT)” value was “No activity” and the “5-HT2B Gq Dissociation (BRET) pEC50 ± SEM” value is listed as “No activity”.
`COc1cc(Br)c(Br)c(OC)c1CCNCc1cccc2ccccc12` [(35)]: the “5-HT2B Gq Dissociation (BRET) EMAX ± SEM (%5-HT)” value is “No activity” and the “5-HT2B Gq Dissociation (BRET) pEC50 ± SEM” value is listed as “No activity”.
For the compound `COc1cc(Br)ccc1CCNCc1cccc(C)c1O` [(41)], the “5-HT2B Gq Dissociation (BRET) EMAX ± SEM (%5-HT)” value is “No activity” and the “5-HT2B Gq Dissociation (BRET) pEC50 ± SEM” value is given as “No activity”.
For `COc1cc(CCN)c(OC)cc1Br` [Compound 2C-B, reference compound], the “5-HT2B Gq Dissociation (BRET) EMAX ± SEM (%5-HT)” value amounted to 97.4 ± 1.4 %5-HT and the “5-HT2B Gq Dissociation (BRET) pEC50 ± SEM” value turned out to be 7.90 ± 0.04.

A further experiment has as its target T2, 5-HT2C (Homo sapiens, UniProt P28335).
T2 sequence (P28335 33-458): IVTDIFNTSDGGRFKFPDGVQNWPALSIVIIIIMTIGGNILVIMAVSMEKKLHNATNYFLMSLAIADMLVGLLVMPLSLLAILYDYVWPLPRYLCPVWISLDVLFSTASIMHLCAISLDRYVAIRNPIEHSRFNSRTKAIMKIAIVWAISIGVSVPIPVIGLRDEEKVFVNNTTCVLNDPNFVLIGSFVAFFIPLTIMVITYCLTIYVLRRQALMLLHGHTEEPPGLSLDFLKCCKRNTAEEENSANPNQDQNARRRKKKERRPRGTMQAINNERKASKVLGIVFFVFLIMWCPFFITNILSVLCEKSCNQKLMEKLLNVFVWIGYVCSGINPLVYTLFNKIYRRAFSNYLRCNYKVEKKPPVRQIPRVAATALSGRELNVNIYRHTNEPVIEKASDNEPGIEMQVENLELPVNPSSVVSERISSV
The experiment is described as follows: BRET Gq dissociation, 5-HT2C. Type of experiment: cell-based. Further details: expressed in transfected cells; host or cells: HEK293T, transient. Particulars: read-out: 5-HT2C Gq Dissociation (BRET) EMAX ± SEM (%5-HT). Here is the method: as §1
Regarding `Brc1c2c(c(CCNCc3cccc4ccccc34)c3c1OCC3)OCC2` [(29)], the Emax was 78.1 ± 2.1%.
Same read-out and setting: next, `COc1cc(Br)c(CCNCc2cccc3ccccc23)cc1OC` [(30)]: 81.4 ± 3.4%.
As to `COc1cc(CCNCc2cccc3ccccc23)cc(OC)c1Br` [(31), 2-(4-bromo-3,5-dimethoxyphenyl)-N-[(naphthalen-1-yl)-methyl]ethan-1-amine], the Emax turned out to be 80.2 ± 2.2%.
As to `COc1cc(Br)cc(OC)c1CCNCc1cccc2ccccc12` [(32)], the Emax amounted to 81 ± 1.6%.
The same measure, in the same setting: next, `COc1cc(Br)cc(OC)c1CC(C)NCc1cccc2ccccc12` (centres unmarked) [(33)]: 80.3 ± 2.4%; `COc1cc(Br)c(Br)c(OC)c1CCNCc1cccc2ccccc12` [(35)]: 69.8 ± 1.3%.
Same read-out and setting: next, `COc1cc(Br)ccc1CCNCc1cccc(C)c1O` [(41)]: 72.2 ± 1.6%.

Staying with this experiment, now noted: read-out: 5-HT2C Gq Dissociation (BRET) pEC50 ± SEM (converted).
Take `Brc1c2c(c(CCNCc3cccc4ccccc34)c3c1OCC3)OCC2` [(29)]: the EC50 was 4.17 nM.
Regarding `COc1cc(Br)c(CCNCc2cccc3ccccc23)cc1OC` [(30)], the EC50 was 66.1 nM.
With `COc1cc(CCNCc2cccc3ccccc23)cc(OC)c1Br` [(31), 2-(4-bromo-3,5-dimethoxyphenyl)-N-[(naphthalen-1-yl)-methyl]ethan-1-amine], the EC50 is 41.7 nM.
Still for that read-out and setting: with `COc1cc(Br)cc(OC)c1CCNCc1cccc2ccccc12` [(32)] the figure was 6.31 nM.
Same read-out and setting: with `COc1cc(Br)cc(OC)c1CC(C)NCc1cccc2ccccc12` (centres unmarked) [(33)] the figure was 64.6 nM; with `COc1cc(Br)c(Br)c(OC)c1CCNCc1cccc2ccccc12` [(35)], 5.5 nM.
The same measure, in the same setting: next, `COc1cc(Br)ccc1CCNCc1cccc(C)c1O` [(41)]: 4.9 nM.

Another experiment has as its target T1, 5-HT2A. Kind of experiment: cell-based. Further details: expressed in transfected cells; host or cells: HEK293T, transient. The conditions noted are these: BRET, mean ± SEM. Here is the method: as §1
Consider `COc1cc(CCN)c(OC)cc1Br` [Compound 2C-B, reference compound], for which the “5-HT2A β-arrestin Emax (% 5-HT)” value worked out at 84.0 ± 1.0 % 5-HT and the “5-HT2A β-arrestin recruitment pEC50” value is 8.62 ± 0.04.
For `CN(C)CCc1c[nH]c2ccccc12` [DMT, reference compound], in that order: 64 ± 3 % 5-HT and 7.12 ± 0.13.

Staying with this experiment, now noted: BRET, mean ± SEM; read-out: 5-HT2A β-arrestin recruitment pEC50 (converted).
Turning to `Brc1c2c(c(CCNCc3cccc4ccccc34)c3c1OCC3)OCC2` [(29)], the EC50 was 1.02 nM.
On the same count and under the same terms, with `COc1cc(Br)c(CCNCc2cccc3ccccc23)cc1OC` [(30)] the figure was 4.47 nM; with `COc1cc(CCNCc2cccc3ccccc23)cc(OC)c1Br` [(31), 2-(4-bromo-3,5-dimethoxyphenyl)-N-[(naphthalen-1-yl)-methyl]ethan-1-amine], 35.5 nM.
`COc1cc(Br)cc(OC)c1CCNCc1cccc2ccccc12` [(32)]: the EC50 is 1.05 nM.
Still for that read-out and setting: next, `COc1cc(Br)cc(OC)c1CC(C)NCc1cccc2ccccc12` (centres unmarked) [(33)]: 4.9 nM; `COc1cc(Br)c(Br)c(OC)c1CCNCc1cccc2ccccc12` [(35)]: 1.95 nM; `COc1cc(Br)ccc1CCNCc1cccc(C)c1O` [(41)]: 2.51 nM.

The same experiment, now with this note: read-out: 5-HT2A β-arrestin Emax (% 5-HT), BRET, mean ± SEM.
As to `Brc1c2c(c(CCNCc3cccc4ccccc34)c3c1OCC3)OCC2` [(29)], the Emax is 62.5 ± 2.3%.
On the same count and under the same terms, next, `COc1cc(Br)c(CCNCc2cccc3ccccc23)cc1OC` [(30)]: 65.1 ± 3%; `COc1cc(CCNCc2cccc3ccccc23)cc(OC)c1Br` [(31), 2-(4-bromo-3,5-dimethoxyphenyl)-N-[(naphthalen-1-yl)-methyl]ethan-1-amine]: 50.8 ± 3.4%.
On the same count and under the same terms, with `COc1cc(Br)cc(OC)c1CCNCc1cccc2ccccc12` [(32)] the figure was 85.5 ± 2%; with `COc1cc(Br)cc(OC)c1CC(C)NCc1cccc2ccccc12` (centres unmarked) [(33)], 98.3 ± 3.3%; with `COc1cc(Br)ccc1CCNCc1cccc(C)c1O` [(41)], 86.6 ± 3.9%.

The record behind these values is patent publication US20240254087A1, “SELECTIVE, PARTIAL, AND ARRESTIN-BIASED 5-HT2A AGONISTS WITH UTILITY IN VARIOUS DISORDERS” (Saint Joseph's University, priority 2021, published 2024).
